Among the data in ChEMBL document CHEMBL1145134, “Inclusion complexation and solubilization of paclitaxel by bridged bis(beta-cyclodextrin)s containing a tetraethylenepentaamino spacer” (2003) are Activity values, retold here.

In this test the test system is K562. Description: Antiproliferative activity of the paclitaxel-TPCD complex was tested against K562 erythroleukemia after 72 hr at a concentration of 1E-6 mg/mL using MTT cytotoxicity assay. The format is functional, Homo sapiens. (Formazan colour is commonly taken as a measure of viable cells.)

As to `CC(=O)O[C@H]1C(=O)[C@@]2(C)[C@H]([C@H](OC(=O)c3ccccc3)[C@]3(O)C[C@H](OC(=O)[C@H](O)[C@@H](NC(=O)c4ccccc4)c4ccccc4)C(C)=C1C3(C)C)[C@]1(OC(C)=O)CO[C@@H]1C[C@@H]2O` [PACLITAXEL], the Activity is listed as 57.7%.
